Our source for the Tm shift values is PubChem BioAssay AID509.

Molecules are shown by their SMILES.

The target in this experiment is Peroxisomal multifunctional enzyme type 2 (Homo sapiens) (UniProt P51659). The experiment in a line: HSD17B4 binders by thermal shift, biophysical, DSF, SYPRO orange, recombinant protein (AID 509). As to conditions: protein 2 µM, buffer 10 mM HEPES, pH 7.5, NaCl 150 mM, stronger effect = higher value.
Chain of Peroxisomal multifunctional enzyme type 2 (Homo sapiens) (P51659 whole entry, looked up): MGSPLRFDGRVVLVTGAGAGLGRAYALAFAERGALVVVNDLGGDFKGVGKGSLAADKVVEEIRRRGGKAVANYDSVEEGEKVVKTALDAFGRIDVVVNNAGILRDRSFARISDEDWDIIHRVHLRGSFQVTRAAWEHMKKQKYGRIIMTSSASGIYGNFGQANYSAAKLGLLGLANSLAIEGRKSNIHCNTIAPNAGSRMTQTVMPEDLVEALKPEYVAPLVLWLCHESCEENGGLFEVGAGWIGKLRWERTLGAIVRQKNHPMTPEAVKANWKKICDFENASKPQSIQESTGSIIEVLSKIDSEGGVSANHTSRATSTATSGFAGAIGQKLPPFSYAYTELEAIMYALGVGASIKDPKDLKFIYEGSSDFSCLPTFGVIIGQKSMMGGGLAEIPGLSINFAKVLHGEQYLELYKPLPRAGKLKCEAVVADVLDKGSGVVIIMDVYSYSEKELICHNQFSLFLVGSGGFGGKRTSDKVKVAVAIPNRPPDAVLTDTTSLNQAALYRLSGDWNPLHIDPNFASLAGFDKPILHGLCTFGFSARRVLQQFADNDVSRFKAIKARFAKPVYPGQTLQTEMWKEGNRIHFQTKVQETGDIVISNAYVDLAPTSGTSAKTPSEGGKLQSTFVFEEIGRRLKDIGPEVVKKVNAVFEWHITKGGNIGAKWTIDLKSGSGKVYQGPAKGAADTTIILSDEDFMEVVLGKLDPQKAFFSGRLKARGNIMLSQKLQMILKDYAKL

For the compound `Oc1cc(O)c2cc(O)c(-c3ccc(O)c(O)c3)[o+]c2c1`, the Tm shift (at 10 µM) came to 2.1 Celsius.

Consider `O=C1C2(Cl)C3(Cl)C4(Cl)C(Cl)(Cl)C5(Cl)C3(Cl)C1(Cl)C5(Cl)C24Cl` (configuration not stated), for which, where the note is “at 100 µM”, the Tm shift turned out to be 3 Celsius.
